Reference: ChEMBL document CHEMBL5726224, “Aminoester derivatives” (2017)

Target: 3',5'-cyclic-AMP phosphodiesterase 4B (Homo sapiens, UniProt Q07343)
Experiment: HTRF Assay: PDE4B2 activity is detected using the LANCE Ultra cAMP homogeneous time resolved fluorescence resonance energy transfer (TR-FRET) assay from Perkin Elmer. The assay is based on the competition between the europium (Eu) chelate-labeled cAMP tracer and sample cAMP for binding sites on cAMP-specific monoclonal antibodies (mAb) labelled with the ULight¿ dye. The assay is carried out in 384-well low volume plates in a volume of 10 μl. Human recombinant PDE4B2 (80 pM) is incubated for 2 h with 3 nM cAMP in buffer containing 1×HBSS, 5 mM HEPES, 3 mM MgCl2, 0.1% BSA, pH 7.4 with or without test compounds. The enzymatic reactions are efficiently stopped by the addition of 500 μM IBMX present in the combined Stop/Detection buffer containing europium (Eu) chelate-labeled cAMP tracer and cAMP-specific monoclonal antibodies (mAb) labelled with the ULight¿ dye. […] IC50 values are determined from competition curves using a non-linear curve fitting program.

3',5'-cyclic-AMP phosphodiesterase 4B, sequence (Q07343 whole entry): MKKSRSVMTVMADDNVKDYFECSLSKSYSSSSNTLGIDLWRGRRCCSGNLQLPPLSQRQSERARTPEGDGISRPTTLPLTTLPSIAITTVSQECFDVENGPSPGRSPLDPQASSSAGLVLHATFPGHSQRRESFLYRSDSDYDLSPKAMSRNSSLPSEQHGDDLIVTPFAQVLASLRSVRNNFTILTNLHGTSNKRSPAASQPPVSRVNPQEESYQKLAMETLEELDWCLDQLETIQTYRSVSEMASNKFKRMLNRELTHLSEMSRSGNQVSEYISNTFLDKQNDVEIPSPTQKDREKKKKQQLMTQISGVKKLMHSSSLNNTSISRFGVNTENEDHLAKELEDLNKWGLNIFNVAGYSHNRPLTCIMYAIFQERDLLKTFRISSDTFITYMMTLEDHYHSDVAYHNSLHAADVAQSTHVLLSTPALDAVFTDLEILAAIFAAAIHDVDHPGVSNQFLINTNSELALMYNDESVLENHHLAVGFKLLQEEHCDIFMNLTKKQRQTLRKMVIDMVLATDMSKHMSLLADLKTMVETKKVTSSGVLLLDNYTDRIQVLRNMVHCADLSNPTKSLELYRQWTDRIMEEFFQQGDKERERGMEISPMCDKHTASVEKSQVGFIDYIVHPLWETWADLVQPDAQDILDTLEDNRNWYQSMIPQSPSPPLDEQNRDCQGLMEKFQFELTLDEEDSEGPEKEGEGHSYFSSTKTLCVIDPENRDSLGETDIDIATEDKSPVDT

SMILES	IC50
COc1ccc([C@H](Cc2c(Cl)c[n+]([O-])cc2Cl)OC(=O)c2ccc(CNC(C(=O)OCC3CCN(C)CC3)c3ccccc3F)s2)cc1OC (stereo partly specified)	< 1 nM
COc1ccc([C@H](Cc2c(Cl)c[n+]([O-])cc2Cl)OC(=O)c2ccc(CNC(CO)(C(=O)OC[C@H]3CCN(C)C3)c3ccccc3)s2)cc1OC (stereo partly specified)	< 1 nM
COc1ccc([C@H](Cc2c(Cl)c[n+]([O-])cc2Cl)OC(=O)c2ccc(CNC(C(=O)OC[C@H]3CCCN(C)C3)c3ccccc3)s2)cc1OC (stereo partly specified)	< 1 nM
COc1ccc([C@H](Cc2c(Cl)c[n+]([O-])cc2Cl)OC(=O)c2ccc(CNC(C(=O)OC[C@H]3CCCCN3C)c3ccccc3)s2)cc1OC (stereo partly specified)	< 1 nM

Results, then the compound that gave them:

IC50	SMILES
< 1 nM	CCOc1cc(C(Cc2c(Cl)c[n+]([O-])cc2Cl)OC(=O)c2ccc(CNC(C(=O)OCC3CCN(C)CC3)c3ccccc3)s2)ccc1OC (stereo unspecified)
< 1 nM	COc1ccc([C@H](Cc2c(Cl)c[n+]([O-])cc2Cl)OC(=O)c2ccc(CNC(C(=O)OCC3CCN(C)CC3)c3cccc(O)c3)s2)cc1OC (stereo partly specified)
< 1 nM	COc1ccc(C(Cc2c(Cl)c[n+]([O-])cc2Cl)OC(=O)c2ccc(CNC(C(=O)OCC3CCN(C)CC3)c3ccccc3)s2)cc1OCC1CC1 (stereo unspecified)
< 1 nM	COc1ccc([C@H](Cc2c(Cl)c[n+]([O-])cc2Cl)OC(=O)c2ccc(CNC(C)(C(=O)OCC3CCN(C)CC3)c3ccccc3)s2)cc1OC (stereo partly specified)

Target: Muscarinic acetylcholine receptor M3 (Homo sapiens, UniProt P20309)
Experiment: The assay is carried out in 96-well polypropylene plates in a volume of 250 μl. […] The final assay concentration of DMSO is 0.5% (v/v). The plates are sealed and incubated for 2 h at room temperature on an orbital shaker (slow speed). Membranes are harvested onto 96-well unifilter GF/C filter plates pre-treated with 0.5% polyethyleneimine (v/v), using a filter manifold, washed four times with 200 μl of assay buffer. The plates are dried before addition of 50 μl of microscint-0, sealed then read in a Trilux Microbeta scintillation counter. IC50 values are determined from competition curves using a non-linear curve fitting program. Ki values are calculated from IC50 values by the Cheng and Prusoff equation.

Muscarinic acetylcholine receptor M3, sequence (P20309 whole entry): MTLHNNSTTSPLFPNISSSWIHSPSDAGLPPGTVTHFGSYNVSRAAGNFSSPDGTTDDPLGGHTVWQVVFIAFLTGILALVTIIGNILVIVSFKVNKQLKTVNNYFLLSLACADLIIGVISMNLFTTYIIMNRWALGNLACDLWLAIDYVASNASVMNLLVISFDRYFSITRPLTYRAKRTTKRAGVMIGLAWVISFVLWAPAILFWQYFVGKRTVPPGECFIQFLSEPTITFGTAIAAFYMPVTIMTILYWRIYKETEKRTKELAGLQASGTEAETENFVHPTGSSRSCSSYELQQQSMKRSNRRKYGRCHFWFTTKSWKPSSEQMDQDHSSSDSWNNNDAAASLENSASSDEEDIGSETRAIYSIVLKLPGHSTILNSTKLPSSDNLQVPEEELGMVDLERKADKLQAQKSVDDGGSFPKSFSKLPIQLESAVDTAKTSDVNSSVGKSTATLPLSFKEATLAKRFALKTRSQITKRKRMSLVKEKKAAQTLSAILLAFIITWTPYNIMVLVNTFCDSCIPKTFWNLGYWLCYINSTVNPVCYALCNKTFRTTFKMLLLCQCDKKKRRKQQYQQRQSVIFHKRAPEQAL

Ki	SMILES	IC50
	COc1ccc([C@H](Cc2c(Cl)c[n+]([O-])cc2Cl)OC(=O)c2ccc(CNC(CO)(C(=O)OC[C@H]3CCN(C)C3)c3ccccc3)s2)cc1OC (stereo partly specified)	< 1 nM
	COc1ccc([C@H](Cc2c(Cl)c[n+]([O-])cc2Cl)OC(=O)c2ccc(CNC(CO)(C(=O)OC[C@@H]3CCN(C)C3)c3ccccc3)s2)cc1OC (stereo partly specified)	< 1 nM
0.59 nM	COc1ccc([C@H](Cc2c(Cl)c[n+]([O-])cc2Cl)OC(=O)c2ccc(CNC(C(=O)OC[C@H]3CCN(C)C3)c3ccccc3)s2)cc1OC (stereo partly specified)	
